# BindingDB's records for patent US11718622 (Exelixis, 2023)
# What was measured:
# Adenosine receptor A2a = Adenosine receptor A2a (Homo sapiens, UniProt P29274); test: ADORA1A Receptor Binding Assay
# Method: 2 L of each compound (test compounds, high control compound, low control compound) was transferred into individual wells of an assay plate. Also, to each individual well, 98 µL of Adenosine A1a membrane stock (for ADORA1A Receptor Binding Assay) or Adenosine A2a membrane stock (for ADORA2A Receptor Binding Assay) was dispensed, followed by 100 L of radio-labeled ligand. Plates were then sealed and incubated at room temperature for 1 hour (for ADORA1A Receptor Binding Assay) or 2 hours (for ADORA2A Receptor Binding Assay). Unifilter-96 GF/C filter plates were pre-soaked with 50 µL of 0.3% PEI per well for at least 30 min at room temperature. When binding assays were completed, reaction mixtures were filtered through GF/C plates using a Perkin Elmer Filtermate Harvester, and then each plate was washed 4 with cold wash buffer. Filter plates were then dried for 1 hour at 50 ° C. After drying, the bottom of the filter plate wells was sealed using Perkin Elmer Unifilter-96 backing seal tape. […] 3H trapped on the filter was counted using a Perkin Elmer MicroBeta2 Reader. Data analysis was performed using GraphPad Prism 5 software, and the Inhibition [% Control] was calculated using the following equation: % Inh=(1 Background subtracted Assay value/Background subtracted HC value) *100.
# Adenosine receptor A2b = molecular target: T1, Adenosine receptor A2b (Homo sapiens, UniProt P29275); test: ADORA2B Receptor Binding Assay
# T1 sequence (P29275 whole entry): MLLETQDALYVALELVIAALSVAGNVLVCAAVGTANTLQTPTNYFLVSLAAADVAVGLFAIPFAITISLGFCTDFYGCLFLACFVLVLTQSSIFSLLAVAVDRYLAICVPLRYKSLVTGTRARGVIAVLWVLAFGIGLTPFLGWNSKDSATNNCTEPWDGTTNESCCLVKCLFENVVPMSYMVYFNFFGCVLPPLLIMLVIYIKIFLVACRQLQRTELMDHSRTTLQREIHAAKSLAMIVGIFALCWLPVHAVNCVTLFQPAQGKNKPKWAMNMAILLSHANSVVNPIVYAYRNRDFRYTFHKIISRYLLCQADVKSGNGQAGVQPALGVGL
# Method: 100 μL of Adenosine A2B membrane stock was dispensed into individual wells of an assay plate. 1 μL of each compound (test compounds, high control compound, low control compound) was then transferred into individual wells, followed by 100 μL of radio-labeled ligand. Plates were then sealed, and incubated at room temperature for 1 hour. Unifilter-96 GF/C filter plates were pre-soaked with 50 μL of 0.5% BSA per well for at least 30 min at room temperature. When binding assays were completed, reaction mixtures were filtered through GF/C plates using a Perkin Elmer Filtermate Harvester, and then each plate was washed 4× with cold wash buffer. Filter plates were then dried for 1 hour at 50° C. After drying, the bottom of the filter plate wells was sealed using Perkin Elmer Unifilter-96 backing seal tape. 50 μL of Perkin Elmer Microscint 20 cocktail was then added, and the top of the filter plate was then sealed using Perkin Elmer TopSeal-A sealing film. 3H trapped on the filter was counted using a Perkin Elmer MicroBeta2 Reader. Data analysis was performed using GraphPad Prism 5 software, and the Inhibition [% Control] was calculated using the following equation: % Inh=(1−Background subtracted Assay value/Background subtracted HC value) *100.
# Chain of Adenosine receptor A2a (P29274 whole entry): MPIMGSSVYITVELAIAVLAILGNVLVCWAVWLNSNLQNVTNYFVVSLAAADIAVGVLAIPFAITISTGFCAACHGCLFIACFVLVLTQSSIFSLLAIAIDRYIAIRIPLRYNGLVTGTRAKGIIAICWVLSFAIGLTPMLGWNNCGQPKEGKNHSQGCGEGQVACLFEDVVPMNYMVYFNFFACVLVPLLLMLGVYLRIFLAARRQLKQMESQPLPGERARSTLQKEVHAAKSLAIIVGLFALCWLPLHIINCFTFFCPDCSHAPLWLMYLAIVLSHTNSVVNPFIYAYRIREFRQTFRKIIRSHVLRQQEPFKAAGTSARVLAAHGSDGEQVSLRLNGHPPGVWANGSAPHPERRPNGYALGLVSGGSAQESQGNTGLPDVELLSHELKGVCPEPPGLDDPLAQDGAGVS
Structure (SMILES),IC50 (Adenosine receptor A2a) [µM],IC50 (Adenosine receptor A2b) [µM]
"Cc1ccc(-c2nc(N)c(C#N)c3nc(C(F)(F)F)nn23)o1 [US11718622, Compound 46]",< 0.01,< 0.01
"Nc1nc2c(-c3ccco3)nc(NC(=O)C3CC3)cn2n1 [US11718622, Compound 186]",< 0.01,< 0.01
